Laboratory results taken from patent US20230054595A1, “NOVEL DRUGGABLE TARGETS FOR THE TREATMENT OF INFLAMMATORY DISEASES SUCH AS SYSTEMIC LUPUS ERYTHEMATOSUS (SLE) AND METHODS FOR DIAGNOSIS AND TREATMENT USING THE SAME” (THE CHILDREN'S HOSPITAL OF PHILADELPHIA, priority 2019, published 2023).

System: TFH cells
Assay: IL-21 secretion by in vitro differentiated TFH cells cultured with pharmacologic inhibitors (ELISA)
Assay type: cell-based, human
Conditions: 5 days with inhibitor (A64 150-2500 nM; PF06260933 3.7-100 nM), restimulated with anti-CD3+anti-CD28, ELISA
Method: Human primary CD4+ T cells were cultured under TFH condition for 5 days in the presence of the indicated concentrations of each inhibitor (150 nM to 2500 nM for A64, 3.7 nM to 100 nM for PF06260933). In addition, anti-CD3- and anti-CD28-stimulated human CD4+ T cells (non-TFH) were cultured in the presence of inhibitors. After 5 days of primary culture, cells were harvested and 10^6 cells were restimulated with plate-bound human anti-CD3+ anti-CD28 (1 ug/ml each) in the presence of inhibitors. Culture supernatants were collected at the indicated timepoints for measurement of IL-2 and IL-21 by ELISA (eBioscience).

Nc1ccc(-c2cnc(N)c(-c3ccc(Cl)cc3)c2)cn1 [PF06260933]
IL-21 production by TFH cells: dose-dependent reduction | IL-21 production by TFH cells (listed as MINK inhibitory drug): dose-dependent inhibition
